Assay results from publication PMC3921447, “Homologous and heterologous desensitization of guanylyl cyclase-B signaling in GH3 somatolactotropes” (Cell and Tissue Research, 2013).

Assays:
GC-A = target: T1, GC-A (Rattus norvegicus, UniProt P18910); assay: Effect of natriuretic peptide pre-treatment on ANP-stimulated (GC-A) cGMP accumulation in GH3 cells; assay type: cell-based; settings: 100 nM CNP pre-treatment 6 h, then 100 nM ANP plus 1 mM IBMX 15 min; Fig. 3d; ns, P > 0.05
T1 construct: Evidence of homologous desensitization of endogenous GC-A- and GC-B-mediated signaling in GH3 cells; endogenous in cells; host or cells: GH3 rat somatolactotrope cells
T1 sequence (P18910 29-1057): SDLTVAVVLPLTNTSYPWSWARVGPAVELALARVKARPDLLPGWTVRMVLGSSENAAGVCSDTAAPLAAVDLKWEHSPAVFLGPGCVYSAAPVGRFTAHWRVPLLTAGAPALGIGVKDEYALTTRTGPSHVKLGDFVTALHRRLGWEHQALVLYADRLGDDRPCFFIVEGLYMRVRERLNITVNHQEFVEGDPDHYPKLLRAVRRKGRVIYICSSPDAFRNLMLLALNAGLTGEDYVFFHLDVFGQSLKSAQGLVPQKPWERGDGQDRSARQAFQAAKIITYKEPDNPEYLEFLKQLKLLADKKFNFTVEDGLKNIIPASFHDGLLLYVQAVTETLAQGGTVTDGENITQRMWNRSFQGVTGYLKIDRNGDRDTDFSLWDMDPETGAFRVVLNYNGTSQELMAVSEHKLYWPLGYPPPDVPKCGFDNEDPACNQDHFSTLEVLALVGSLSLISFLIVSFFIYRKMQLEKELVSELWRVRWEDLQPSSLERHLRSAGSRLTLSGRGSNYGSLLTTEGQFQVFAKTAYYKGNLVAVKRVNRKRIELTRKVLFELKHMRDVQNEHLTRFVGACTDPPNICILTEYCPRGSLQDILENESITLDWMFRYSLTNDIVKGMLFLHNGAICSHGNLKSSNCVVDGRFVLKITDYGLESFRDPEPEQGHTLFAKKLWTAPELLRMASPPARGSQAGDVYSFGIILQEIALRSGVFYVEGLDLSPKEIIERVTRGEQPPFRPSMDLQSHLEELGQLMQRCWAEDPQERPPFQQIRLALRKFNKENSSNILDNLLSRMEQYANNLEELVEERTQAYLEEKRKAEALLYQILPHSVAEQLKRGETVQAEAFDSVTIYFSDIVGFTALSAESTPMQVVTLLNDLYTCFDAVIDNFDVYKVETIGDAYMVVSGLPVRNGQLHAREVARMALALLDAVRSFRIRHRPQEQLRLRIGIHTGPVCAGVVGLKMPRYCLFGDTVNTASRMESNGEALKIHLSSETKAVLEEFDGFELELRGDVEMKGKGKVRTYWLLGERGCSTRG
Method: Having established that GC-B signaling but not that of GC-A receptors, underwent rapid homologous desensitization, we next examined the effect of prolonged exposure of each receptor to its specific ligand. GH3 cells pre-treated with either ANP or CNP for 0 (control) to 6 h reduced the response to a subsequent 15-min treatment of ANP or CNP (with IBMX). […] The amount of cGMP measured from the 15-min pre-treatment sample was reduced by 39.6 ± 0.002 % (***P < 0.001). This effect was maintained up to the 6-h pre-treatment with CNP, which was reduced by 37.9 ± 7.1 % compared with the control (***P < 0.001).
Fig. 3 Effect of chronic exposure to CNP and ANP on GC-B- and GC-A-dependent cGMP accumulation in GH3 cells. Cells were initially treated with (a) 100 nM CNP or (b) 100 nM ANP in PSS without IBMX for 0 to 6 h. The medium was removed and replaced with 100 nM CNP (a) or 100 nM ANP (b) for 15 min in the presence of 1 mM IBMX. […]
In similar experiments designed to examine the effect of ANP pre-exposure to GC-A activity, a significant reduction in cGMP accumulation was observed within 30 min of ANP pre-treatment (by 28.9 ± 3.1 % compared with the control, *P < 0.05). […] In order to test the receptor specificity of the observed down-regulation of GC-B upon pre-treatment with CNP and of GC-A upon pre-treatment with ANP, the effects of ANP on GC-B and CNP on GC-A desensitization were determined. […]

GC-A and GC-B receptors = settings: prolonged exposure; ref Fan et al. [2005]; Dickey et al. [2011]; cited from earlier work
Source text: Pharmacological regulation of the GC-B receptor has been elegantly described through many studies by Potter and Hunter ([1998a], [1999]) who have shown that dephosphorylation of specific serine and threonine residues of the GC-B receptor leads to rapid homologous desensitization. In keeping with the extensive literature describing the regulation of GC-A receptors (Potter et al. [2006]), enhancement of protein kinase C (PKC) activity leads to heterologous desensitization (Potter and Hunter [2000]).

CC[C@H](C)[C@@H]1NC(=O)[C@H](CCCNC(=N)N)NC(=O)[C@H](CC(=O)O)NC(=O)[C@H](CC(C)C)NC(=O)[C@H](CCCCN)NC(=O)[C@H](CC(C)C)NC(=O)CNC(=O)[C@H](Cc2ccccc2)NC(=O)[C@@H](NC(=O)CNC(=O)[C@H](CCCCN)NC(=O)[C@H](CO)NC(=O)[C@H](CC(C)C)NC(=O)CN)CSSC[C@@H](C(=O)O)NC(=O)CNC(=O)[C@H](CC(C)C)NC(=O)CNC(=O)[C@H](CO)NC(=O)[C@H](CCSC)NC(=O)[C@H](CO)NC(=O)CNC1=O [CNP, C-type natriuretic peptide]
ANP-stimulated cGMP after CNP pre-treatment vs control (GC-A): not significantly different from the control samples | agonist-induced internalization (GC-A and GC-B receptors): does not appear to cause agonist-induced internalization
